Assay results reported in patent publication US20260015350A1, “AZAQUINAZOLINE PAN-KRAS INHIBITORS” (Mirati Therapeutics, Inc., priority 2022, published 2026).

Tests used:
[1] = biological target: T1, KRas^WT (Homo sapiens, UniProt P01116); assay: KRas binding assay (TR-FRET tracer displacement), KRas WT; conditions: TR-FRET tracer displacement, KRas WT
T1 construct: Biotinylated KRas (corresponding to amino acids 1-169, produced at Accelegan Inc.); biotin (biotinylated); purchased Accelegan Inc
T1 sequence (P01116 1-169 isoform P01116-2): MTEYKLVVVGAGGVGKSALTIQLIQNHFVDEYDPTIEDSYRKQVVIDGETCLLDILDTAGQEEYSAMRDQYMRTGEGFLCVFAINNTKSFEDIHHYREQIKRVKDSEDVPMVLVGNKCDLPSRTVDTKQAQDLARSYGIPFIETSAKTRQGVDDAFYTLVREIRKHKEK

[2] = biological target: T2, KRas^G12V (Homo sapiens, UniProt P01116, G12V); assay: KRas binding assay (TR-FRET tracer displacement), KRas G12V
T2 construct: Biotinylated KRas (corresponding to amino acids 1-169, produced at Accelegan Inc.); biotin (biotinylated); purchased Accelegan Inc
T2 sequence (P01116 1-169 isoform P01116-2 G12V): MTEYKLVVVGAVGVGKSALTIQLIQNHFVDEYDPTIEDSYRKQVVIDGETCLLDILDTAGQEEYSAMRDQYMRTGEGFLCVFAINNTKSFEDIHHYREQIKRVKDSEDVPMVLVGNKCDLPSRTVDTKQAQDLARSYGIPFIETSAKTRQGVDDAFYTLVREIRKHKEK

[3] = system: KRas-mediated phosphorylation of ERK in H727 cells; assay: Inhibition of KRas-mediated phosphorylation of ERK (Cisbio HTRF pERK), H727 cells; type: cell-based; conditions: Homo sapiens; for inhibition at 0.1 µM: NCI-H727, 3 h, single point, 100 nM compound, 3 hrs, H727 cells; for IC50: NCI-H727, H727 cells, HTRF pERK
How it was run: (§1)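 H358, H727, H460 and AsPC-1 cells seeded at 6,000/well, treated 3 hrs with 10-dose 3-fold dilutions from 10 uM (0.8% DMSO); 0.2 uM trametinib as min control. Lysed 40 min at 4° C; lysate incubated 2 hrs at room temperature with d2/cryptate antibodies, HTRF read.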

[4] = biological target: T3, KRas^G12R (Homo sapiens, UniProt P01116, G12R); assay: KRas binding assay (TR-FRET tracer displacement), KRas G12R
T3 construct: Biotinylated KRas (corresponding to amino acids 1-169, produced at Accelegan Inc.); biotin (biotinylated); purchased Accelegan Inc
T3 sequence (P01116 1-169 isoform P01116-2 G12R): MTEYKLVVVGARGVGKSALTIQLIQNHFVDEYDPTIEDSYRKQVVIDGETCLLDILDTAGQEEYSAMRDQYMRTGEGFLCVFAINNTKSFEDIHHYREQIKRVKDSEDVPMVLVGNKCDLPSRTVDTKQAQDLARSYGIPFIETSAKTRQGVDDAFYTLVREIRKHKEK

[5] = system: KRas-mediated phosphorylation of ERK in A549 cells; assay: Inhibition of KRas-mediated phosphorylation of ERK (Cisbio HTRF pERK), A549 cells; type: cell-based; conditions: Homo sapiens; for inhibition at 0.1 µM: A549, 3 h, single point, 100 nM compound, 3 hrs
How it was run: (§2)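 6,000 cells/well; cpd 10 uM top, 3-fold x10, 0.8% DMSO final; 3 hr incubation; Min ctrl Trametinib 0.2 uM; lysis 40 min 4° C shaking; d2 + Cryptate Ab mix, 2 hr RT; HTRF read.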

[6] = biological target: T4, KRas^G12A (Homo sapiens, UniProt P01116, G12A); assay: KRas binding assay (TR-FRET tracer displacement), KRas G12A; conditions: TR-FRET tracer displacement, KRas G12A
T4 construct: Biotinylated KRas (corresponding to amino acids 1-169, produced at Accelegan Inc.); biotin (biotinylated); purchased Accelegan Inc
T4 sequence (P01116 1-169 isoform P01116-2 G12A): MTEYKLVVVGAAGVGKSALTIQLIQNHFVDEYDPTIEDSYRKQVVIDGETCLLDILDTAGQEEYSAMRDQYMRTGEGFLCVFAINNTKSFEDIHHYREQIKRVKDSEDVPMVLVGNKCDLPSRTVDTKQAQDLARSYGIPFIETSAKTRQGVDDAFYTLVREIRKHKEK

[7] = biological target: T5, KRas^Q61H (Homo sapiens, UniProt P01116, Q61H); assay: KRas binding assay (TR-FRET tracer displacement), KRas Q61H; conditions: TR-FRET tracer displacement, KRas Q61H
T5 construct: Biotinylated KRas (corresponding to amino acids 1-169, produced at Accelegan Inc.); biotin (biotinylated); purchased Accelegan Inc
T5 sequence (P01116 1-169 isoform P01116-2 Q61H): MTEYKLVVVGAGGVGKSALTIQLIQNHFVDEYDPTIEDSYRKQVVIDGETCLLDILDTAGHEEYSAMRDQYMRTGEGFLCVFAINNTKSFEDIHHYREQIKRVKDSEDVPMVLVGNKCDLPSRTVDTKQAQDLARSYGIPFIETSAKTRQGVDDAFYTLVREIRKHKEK

[8] = biological target: T6, KRas^G12D (Homo sapiens, UniProt P01116, G12D); assay: KRas binding assay (TR-FRET tracer displacement), KRas G12D
T6 construct: Biotinylated KRas (corresponding to amino acids 1-169, produced at Accelegan Inc.); biotin (biotinylated); purchased Accelegan Inc
T6 sequence (P01116 1-169 isoform P01116-2 G12D): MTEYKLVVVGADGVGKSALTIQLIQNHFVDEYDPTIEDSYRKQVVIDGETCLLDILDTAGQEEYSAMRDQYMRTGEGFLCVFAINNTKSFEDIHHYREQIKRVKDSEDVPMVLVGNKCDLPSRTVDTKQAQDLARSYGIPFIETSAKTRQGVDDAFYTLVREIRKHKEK

[9] = biological target: T7, KRas^G13D (Homo sapiens, UniProt P01116, G13D); assay: KRas binding assay (TR-FRET tracer displacement), KRas G13D; conditions: TR-FRET tracer displacement, KRas G13D
T7 construct: Biotinylated KRas (corresponding to amino acids 1-169, produced at Accelegan Inc.); biotin (biotinylated); purchased Accelegan Inc
T7 sequence (P01116 1-169 isoform P01116-2 G13D): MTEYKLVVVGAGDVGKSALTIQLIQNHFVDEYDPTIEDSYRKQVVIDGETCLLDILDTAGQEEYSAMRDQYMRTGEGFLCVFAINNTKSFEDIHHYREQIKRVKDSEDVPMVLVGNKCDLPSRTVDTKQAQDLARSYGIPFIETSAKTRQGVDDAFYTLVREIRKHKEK

[10] = biological target: T8, KRas^G12S (Homo sapiens, UniProt P01116, G12S); assay: KRas binding assay (TR-FRET tracer displacement), KRas G12S; conditions: TR-FRET tracer displacement, KRas G12S
T8 construct: Biotinylated KRas (corresponding to amino acids 1-169, produced at Accelegan Inc.); biotin (biotinylated); purchased Accelegan Inc
T8 sequence (P01116 1-169 isoform P01116-2 G12S): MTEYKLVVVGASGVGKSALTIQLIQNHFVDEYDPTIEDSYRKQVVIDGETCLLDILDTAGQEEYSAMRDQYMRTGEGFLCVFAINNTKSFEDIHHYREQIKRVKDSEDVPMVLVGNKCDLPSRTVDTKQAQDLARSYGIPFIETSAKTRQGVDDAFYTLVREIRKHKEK

[11] = biological target: T9, KRas^G12C (Homo sapiens, UniProt P01116, G12C); assay: KRas binding assay (TR-FRET tracer displacement), KRas G12C; conditions: TR-FRET tracer displacement, KRas G12C
T9 construct: Biotinylated KRas (corresponding to amino acids 1-169, produced at Accelegan Inc.); biotin (biotinylated); purchased Accelegan Inc
T9 sequence (P01116 1-169 isoform P01116-2 G12C): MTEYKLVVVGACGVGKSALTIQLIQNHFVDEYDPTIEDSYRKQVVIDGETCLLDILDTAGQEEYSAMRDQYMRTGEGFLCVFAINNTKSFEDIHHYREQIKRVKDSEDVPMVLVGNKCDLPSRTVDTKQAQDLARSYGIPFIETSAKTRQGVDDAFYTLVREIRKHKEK

[12] = system: KRas-mediated phosphorylation of ERK in H358 cells; assay: Inhibition of KRas-mediated phosphorylation of ERK (Cisbio HTRF pERK), H358 cells; type: cell-based; conditions: Homo sapiens; for inhibition at 0.1 µM: NCI-H358, 3 h, single point, 100 nM compound, 3 hrs
How it was run: as §1

[13] = system: KRas-mediated phosphorylation of ERK in AsPC-1 cells; assay: Inhibition of KRas-mediated phosphorylation of ERK (Cisbio HTRF pERK), AsPC-1 cells; type: cell-based; conditions: Homo sapiens; for inhibition at 0.1 µM: ASPC1, 3 h, single point, 100 nM compound, 3 hrs, AsPC-1 cells; for IC50: ASPC1, AsPC-1 cells, HTRF pERK
How it was run: as §1

[14] = system: KRas-mediated phosphorylation of ERK in H460 cells; assay: Inhibition of KRas-mediated phosphorylation of ERK (Cisbio HTRF pERK), H460 cells; type: cell-based; conditions: Homo sapiens; for inhibition at 0.1 µM: NCI-H460, 3 h, single point, 100 nM compound, 3 hrs
How it was run: as §1

[15] = system: KRas-mediated phosphorylation of ERK in HCT116 cells; assay: Inhibition of KRas-mediated phosphorylation of ERK (Cisbio HTRF pERK), HCT116 cells; type: cell-based; conditions: Homo sapiens; for inhibition at 0.1 µM: HCT-116, 3 h, single point, 100 nM compound, 3 hrs
How it was run: as §2

SMILES	IC50 [1]	IC50 [2]	inhibition at 0.1 µM [3]	IC50 [3]	IC50 [4]	inhibition at 0.1 µM [5]	IC50 [6]	IC50 [7]	IC50 [8]	IC50 [9]	IC50 [10]	IC50 [11]	inhibition at 0.1 µM [12]	inhibition at 0.1 µM [13]	IC50 [13]	inhibition at 0.1 µM [14]	inhibition at 0.1 µM [15]	other results
Oc1cc2ccccc2c(-c2ncc3c(N4C[C@@H]5C[C@H](C4)[C@H](O)C5)nc(OC[C@@]45CCCN4C[C@H](F)C5)nc3c2F)c1Cl [Example 765, (1R,5R,6R)-3-(7-(2-chloro-3-hydroxynaphthalen-1-yl)-8-fluoro-2-(((2R,7aS)-2-fluorohexahydro-1H-pyrrolizin-7a-yl)methoxy)pyrido[4,3-d]pyrimidin-4-yl)-3-azabicyclo[3.2.1]octan-6-ol]	156 nM	83 nM	-13%	2910 nM	132 nM	28%	139 nM	164 nM	268 nM	146 nM	100 nM	144 nM	-5%	-6%	5910 nM	–	–	–
O=C1NC(=O)[C@]2(CCCN(c3nc(OC[C@@]45CCCN4C[C@H](F)C5)nc4c(F)c(-c5c(C6CC6)c(Cl)cc6[nH]ncc56)ncc34)C2)N1 [Example 780, (5R)-7-(7-(6-chloro-5-cyclopropyl-1H-indazol-4-yl)-8-fluoro-2-(((2R,7aS)-2-fluorohexahydro-1H-pyrrolizin-7a-yl)methoxy)pyrido[4,3-d]pyrimidin-4-yl)-1,3,7-triazaspiro[4.5]decane-2,4-dione]	< 2 nM	< 2 nM	30%	340 nM	< 2 nM	21%	< 2 nM	< 2 nM	< 2 nM	< 2 nM	< 2 nM	< 2 nM	42%	-12%	784 nM	-8%	-2%	IC50 ([5]; HTRF pERK): 412 nM; IC50 ([14]; NCI-H460, HTRF pERK): 246 nM; IC50 ([15]; HCT-116, HTRF pERK): 557 nM; IC50 ([12]; NCI-H358, HTRF pERK): 33 nM
O=S1(=O)NCC2(CCCN(c3nc(OCC45CCCN4CCC5)nc4c(F)c(-c5c6ccccc6cc6[nH]ncc56)ncc34)C2)N1 (stereo not drawn) [Example 758, 7-(7-(1H-benzo[f]indazol-4-yl)-8-fluoro-2-((hexahydro-1H-pyrrolizin-7a-yl)methoxy)pyrido[4,3-d]pyrimidin-4-yl)-2-thia-1,3,7-triazaspiro[4.5]decane 2,2-dioxide]	< 2 nM	< 2 nM	–	1780 nM	< 2 nM	11%	< 2 nM	< 2 nM	5 nM	< 2 nM	< 2 nM	< 2 nM	23%	–	1270 nM	9%	20%	–
Cc1ccc2c(-c3ncc4c(N5C[C@@H]6C[C@H](C5)[C@H](O)C6)nc(OC[C@@]56CCCN5C[C@H](F)C6)nc4c3F)cc(O)cc2c1 [Example 746, (1R,5R,6R)-3-(8-fluoro-2-(((2R,7aS)-2-fluorotetrahydro-1H-pyrrolizin-7a(5H)-yl)methoxy)-7-(3-hydroxy-6-methylnaphthalen-1-yl)pyrido[4,3-d]pyrimidin-4-yl)-3-azabicyclo[3.2.1]octan-6-ol]	117 nM	59 nM	–	1340 nM	68 nM	-19%	82 nM	166 nM	226 nM	107 nM	64 nM	106 nM	-17%	–	2260 nM	2%	10%	–
